According to patent US11465987B2, “Compounds for treatment of cancer” (ONCTERNAL THERAPEUTICS, INC., priority 2012, dated 2022):
Like-named read-outs stand apart in the source and are kept apart here.

Tests used:
[1] = system: B16-F1 mouse melanoma cell line; test: Cytotoxicity (SRB) assay, B16-F1; type: cell-based; conditions: Mus musculus
[2] = system: DU 145 human prostate cancer cell line; test: Cytotoxicity (SRB) assay, DU 145; type: cell-based; conditions: Homo sapiens
Source text: (§1) Cells were stained with SRB solution.

[3] = system: LNCaP human prostate cancer cell line; test: Cytotoxicity (SRB) assay, LNCaP; type: cell-based; conditions: Homo sapiens, LNCaP
Source text: as §1

[4] = system: melanoma and prostate cancer cell lines; test: Antiproliferative activity summarised over the cell line panel (range or average); type: cell-based
[5] = system: PPC-1 human prostate cancer cell line; test: Cytotoxicity (SRB) assay, PPC-1; type: cell-based; conditions: Homo sapiens
Source text: as §1

[6] = system: A375 human melanoma cell line; test: Cytotoxicity (SRB) assay, A375; type: cell-based; conditions: Homo sapiens
[7] = system: PC-3 human prostate cancer cell line; test: cells
Source text: as §1

[8] = system: WM-164 human melanoma cell line; test: Cytotoxicity (SRB) assay, WM-164; type: cell-based; conditions: Homo sapiens
[9] = system: MDA-MB-435 parental nonresistant melanoma cells; test: Cytotoxicity (SRB) assay, MDA-MB-435; type: cell-based; conditions: Homo sapiens
[10] = system: MDA-MB-435/LCCMDR1 multidrug-resistant melanoma cells; test: Cytotoxicity (SRB) assay, MDA-MB-435/LCCMDR1; type: cell-based; conditions: Homo sapiens
[11] = Pharmacokinetic study in Sprague-Dawley rats; conditions: rat, oral
[12] = B16-F1, Table 11, read-out: IC50, B16-F1
[13] = DU-145, Table 11, read-out: IC50, Du 145
[14] = Table 11, read-out: IC50, LNCaP
[15] = Tables 11-13, read-out: IC50 (average of all seven cell lines)
[16] = PPC-1, Table 11, read-out: IC50, PPC-1
[17] = A-375, Table 11, read-out: IC50, A375
[18] = WM164, Table 11, read-out: IC50, WM164
[19] = B16-F1, Table 12, read-out: IC50 ± SEM, B16-F1 (converted)
[20] = Table 12, read-out: IC50 ± SEM, LNCaP (converted)
[21] = read-out: IC50 (range over tested cell lines)
[22] = A-375, Table 12, read-out: IC50 ± SEM, A375 (converted)
[23] = Homo sapiens, read-out: IC50 ± SEM, PC-3, Table 12
[24] = WM164, Table 12, read-out: IC50 ± SEM, WM164 (converted)

COc1ccc(C(=O)c2c[nH]c(-c3ccccc3)n2)cc1OC [12ae, (3,4-dimethoxyphenyl)(2-phenyl-1H-imidazol-4-yl)methanone]
IC50 [1, 12]: > 10 µM
IC50 [2, 13]: > 10 µM
IC50 [3, 14]: > 10 µM
IC50 [4, 15]: > 10 µM
IC50 [5, 16]: > 10 µM
IC50 [6, 17]: > 10 µM
IC50 ([7]; read-out: IC50, PC-3, Table 11): > 10 µM
IC50 [8, 18]: > 10 µM

COc1cc(Cc2nc(-c3ccccc3)c(-c3ccccc3)[nH]2)cc(OC)c1OC [102 e, 4,5-Diphenyl-2-(3,4,5-trimethoxybenzyl)-1H-imidazole]
IC50 ([9]; Table 14C, melanoma cells, read-out: IC50 ± SEM MDA-MB-435): > 50 µM
IC50 ([10]; Table 14C, melanoma cells, read-out: IC50 ± SEM MDA-MB-435/LCC-6MDR1): > 50 µM

COc1ccc(-c2nc(C(=O)c3cc(OC)c(OC)c(OC)c3)c[nH]2)cc1 [12ca, (2-(4-methoxyphenyl)-1H-imidazol-4-yl)(3,4,5-trimethoxyphenyl)methanone]
IC50 [1, 19]: 0.108 µM
IC50 [3, 20]: 0.031 µM
IC50 [4, 21]: 0.0079 to 0.11 µM
IC50 [6, 22]: 0.03 µM
IC50 [7, 23]: 0.045 µM
IC50 [8, 24]: 0.031 µM

COc1cc(C(=O)c2csc(Nc3ccc(F)cc3)n2)cc(OC)c1OC.Cl [5Hc, (2-(p-fluorophenylamino)thiazol-4-yl)(3,4,5-trimethoxyphenyl)methanone hydrochloride salt]
increased exposure (AUC) by the oral route compared to 1h [11]: more than 4.3 fold

COc1cc(C(=O)c2c[nH]c(-c3ccc(N(C)C)cc3)n2)cc(OC)c1OC [12ga, (2-(4-(dimethylamino)phenyl)-1H-imidazol-4-yl)(3,4,5-trimethoxyphenyl)methanone]
IC50 [1, 19]: 0.361 µM
IC50 [4, 21]: 0.0079 to 0.11 µM
IC50 [6, 22]: 0.082 µM
IC50 [7, 23]: 0.092 µM
IC50 [8, 24]: 0.08 µM

COc1cc(C(=O)n2ccnc2-c2ccccc2)cc(OC)c1OC [12aaa, (2-phenyl-1H-imidazol-1-yl)(3,4,5-trimethoxyphenyl)methanone]
IC50 [1, 12]: > 10 µM
IC50 [2, 13]: > 10 µM
IC50 [3, 14]: > 10 µM
IC50 [4, 15]: > 10 µM
IC50 [5, 16]: > 10 µM
IC50 [6, 17]: > 10 µM
IC50 ([7]; read-out: IC50, PC-3, Table 11): > 10 µM
IC50 [8, 18]: > 10 µM

O=S(=O)(c1ccccc1)n1ccnc1-c1ccccc1 [10a, 2-phenyl-1-(phenylsulfonyl)-1H-imidazole]
IC50 [1, 12]: > 10 µM
IC50 [2, 13]: > 10 µM
IC50 [3, 14]: > 10 µM
IC50 [4, 15]: > 10 µM
IC50 [5, 16]: > 10 µM
IC50 [6, 17]: > 10 µM
IC50 ([7]; read-out: IC50, PC-3, Table 11): > 10 µM
IC50 [8, 18]: > 10 µM

COc1cc(C(=O)c2c[nH]c(-c3ccc(F)cc3)n2)cc(OC)c1OC [12ba, (2-(4-fluorophenyl)-1H-imidazol-4-yl)(3,4,5-trimethoxyphenyl)methanone]
IC50 [1, 19]: 0.32 ± 0.041 µM
IC50 [6, 22]: 0.205 ± 0.019 µM
IC50 [7, 23]: 0.169 ± 0.012 µM
IC50 [8, 24]: 0.073 ± 0.008 µM

COc1cc(C(=O)c2c[nH]c(-c3ccc(C(C)(C)C)cc3)n2)cc(OC)c1OC [12w, (2-(4-tert-butylphenyl)-1H-imidazol-4-yl)(3,4,5-trimethoxyphenyl)methanone]
IC50 ([2]; DU-145, Table 12, read-out: IC50 ± SEM, Du 145): 1.7 µM
IC50 [3, 20]: 0.423 µM
IC50 ([5]; PPC-1, Table 12, read-out: IC50 ± SEM, PPC-1 (converted)): 0.294 µM
IC50 ([9]; Table 14D, read-out: IC50 ± SEM, MDA-MB-435 (converted)): 3.69 µM
IC50 [7, 23]: 0.436 µM
IC50 ([10]; Table 14D, read-out: IC50 ± SEM, MDA-MB-435/LCC-6MDR1 (converted)): 3.07 µM

O=C(c1cccc(F)c1)c1c[nH]c(-c2ccccc2)n1 [12ag, (3-fluorophenyl)(2-phenyl-1H-imidazol-4-yl)methanone]
IC50 [1, 12]: > 10 µM
IC50 [2, 13]: > 10 µM
IC50 [3, 14]: > 10 µM
IC50 [4, 15]: > 10 µM
IC50 [5, 16]: > 10 µM
IC50 [6, 17]: > 10 µM
IC50 ([7]; read-out: IC50, PC-3, Table 11): > 10 µM
IC50 [8, 18]: > 10 µM

O=[N+]([O-])c1ccc(-c2nccn2S(=O)(=O)c2ccccc2)cc1 [10x, 2-(4-nitrophenyl)-1-(phenylsulfonyl)-1H-imidazole]
IC50 [1, 12]: > 10 µM
IC50 [2, 13]: > 10 µM
IC50 [3, 14]: > 10 µM
IC50 [4, 15]: > 10 µM
IC50 [5, 16]: > 10 µM
IC50 [6, 17]: > 10 µM
IC50 ([7]; read-out: IC50, PC-3, Table 11): > 10 µM
IC50 [8, 18]: > 10 µM
